Results from patent US11786555B2, “RAR selective agonists in combination with immune modulators for cancer immunotherapy” (IO THERAPEUTICS, INC., priority 2017, dated 2023).

Key:
MM cells = experiment: surface CD138 expression of MM cells by flow cytometry; format: cell-based, human; details: absence of stroma, 1 μM
Description: (§1) Coculture experiments. 24-well plates were coated with 0.1% gelatin in PBS for 30 min at 37° C. The gelatin solution was removed, and the stromal cells were cultured overnight at a density of 5×10^4 cells/well to obtain a confluent monolayer. At that time, MM cell lines or primary MM cells (1×10^5 in 2 ml) were added to the stroma cultures. The stroma cocultures were incubated at 37° C. in RPMI containing 10% FCS, L-glutamine, and P/S, with or without AGN194310 (1 μM for 5 days), R115866 (1 μM for 5 days), IRX5183 (1 μM for 5 days), or BTZ (2.5 nM for 48 hr).
Flow cytometry. Following treatment, MM cells were collected, washed with PBS, and stained for 15 min at room temperature with phycoerythrin-conjugated (PE-conjugated) anti-CD138. Cells were washed to remove unbound antibody and evaluated in a FACSCalibur system (BD Biosciences). Stromal cells were identified by GFP expression, and viable cells were identified using 7-aminoactinomycin D (7-AAD). To calculate cell numbers, live GFP-cells were normalized to calibration beads.
Expression of CD138 is a hallmark of normal PC differentiation as well MM PCs.

[1] = system: H929 cells and CD138+ primary MM cells; experiment: qRT-PCR of B cell and PC markers in MM cells, liquid or BM stroma co-culture; format: cell-based, human; details: absence of stroma (Liquid), 1 μM for 5 days
Description: FIG. 3A-H depicts the relative concentration of plasma markers BCL6 (FIG. 3A and E), BLIMP-1 (FIG. 3B and F), XBPS-1 (FIG. 3C and G), and CHOP (FIG. 3D and H) in multiple myeloma (MM) cell lines H929 (FIG. 3A-D) or CD138+ MM cells from three different patient samples (FIG. 3E-H) incubated for 5 days either in the absence of stroma (Liquid), with or without AGN (RA receptor antagonist AGN194310, 1 μM), or co-cultured with BM mesenchymal cells (Stroma), with or without R115 (CYP26 inhibitor R115866, 1 μM) or IRX (CYP26-resistant retinoid IRX5183, 1 μM). Expression in untreated liquid conditions was set at 1. Data are representative of 3 independent experiments with similar results and represent the mean ±SEM. *P≤0.05 and **P≤0.01, by repeated-measures 1-way ANOVA for determination of statistical significance between groups; P values were corrected for multiple comparisons using Dunnett's test. Ctrl, control; max, maximum.
as §1
(§2) qRT-PCR. Total RNA was extracted using the RNeasy Mini Kit (QIAGEN) according to the manufacturer's instructions. cDNA was synthesized by reverse transcription using the iScript cDNA Synthesis Kit (Bio-Rad). qRT-PCR was performed with iTaq SYBR Green Supermix (Bio-Rad) using sequence specific primers. Gene expression was normalized to GAPDH, and relative quantification was calculated using ΔΔCt. All experiments were performed in duplicate and run on the Bio-Rad CFX96 machine.
The BM microenvironment (also called “niche”) limits PC differentiation by modulating retinoid signaling. A population of MM progenitors, phenotypically similar to B cells, is intrinsically resistant to BTZ and contributes to MRD and relapse. To investigate whether the BM niche plays a role in determining the phenotype of MM cells, the mRNA expression of B cell and PC markers in MM H929 cell lines (FIG. 3A-D) and MM CD138+ primary cells (FIG. 3E-H) was analyzed following co-culture with mouse BM stroma using human-specific primers. […] In contrast, co-culture of MM cells with BM stroma decreased the mRNA expression of B lymphocyte-induced maturation protein 1 (BLIMP1) and spliced X box-binding protein 1 (XBP1s) (FIG. 3B, C, F, G), which are critical mediators of PC differentiation.
The BM niche regulates hematopoietic stem cell (HSC) differentiation by expressing the retinoid-inactivating enzyme CYP26. CYP26 enzymes were highly expressed in BM mesenchymal cells, while their expression was barely detectable in MM cells. Since retinoid signaling promotes PC differentiation and potentiates Ig secretion, it was determined whether stromal CYP26 is responsible for inducing a B cell phenotype in MM cells. To this end, co-culture conditions were treated with the CYP26 inhibitor R115866 (R115) or the CYP26-resistant RA receptor α-selective (RARα-selective) retinoid IRX5183 (IRX).

[2] = system: H929 cells and primary CD138+ MM cells; experiment: clonogenic or cellular recovery of MM cells after BTZ treatment; format: cell-based, human; details: absence of stroma, 1 μM for 5 days, then BTZ 2.5 nM
Description: FIG. 4A-B depicts the clonogenic recovery (CFU) of H929 cells (FIG. 4A) or cellular recovery of primary CD138+ MM cells from 3 different patient samples (FIG. 4B). MM cells were treated with bortezomib (BTZ; 2.5 nM) for 48 hours after being incubated for 5 days either in the absence of stroma (Liquid), with or without the pan-RAR inhibitor AGN (1 μM), or in the presence of BM mesenchymal cells (Stroma), with or without the CYP26 inhibitor R115 (1 μM) or the CYP26-resistant retinoid IRX (1 μM). Clonogenic or cellular recovery was normalized to each condition in the absence of BTZ.
as §1
Clonogenic assays. After treatment, MM cells were collected, washed with PBS, and plated at a density of 5,000 cells/ml in 1 ml of 1.32% methylcellulose supplemented with 30% FBS, 10% BSA, L-glutamine, P/S, and 0.1 mM β-ME. Cells were plated in triplicate in 35-mm culture dishes, incubated at 37° C., and scored for the presence of colonies 14 days later.
A RA-low microenvironment induces BTZ resistance. To determine whether decreased retinoid signaling contributes to BTZ resistance within the BM niche, MM cell lines and MM CD138+ primary cells were incubated with BM stroma for 5 days, followed by BTZ treatment.

[3] = system: naive CD4+ CD25− FoxP3− cells; experiment: in vitro Th17 cell differentiation; format: cell-based, mouse; details: in vitro, data not shown
Description: (§3) To determine whether a RARα agonist could affect T cell differentiation, T cells were incubated with a RARα agonist to determine its effect on Foxp3 expression. Naive CD4^+ CD25^− FoxP3^− cells were purified from a Foxp3-GFP mouse using flow cytometry by sorting and isolating based upon a GFP^− phenotype. These cells were activated polyclonally with αCD3 in vitro in the presence of IL-2 and TGF-β. These cells were then cultured in media with various concentrations of compound IRX5183 (a RARα agonist) and the expression of FoxP3-GFP was analyzed by flow cytometry. The RARα agonist compound IRX5183 enhanced differentiation of immunosuppressive Treg cells and inhibited differentiation of inflammatory TH17 cells from naïve T cells in vitro (Table 2).

CD4+ T cells = experiment: in vivo T cell differentiation in mice (blood and spleen); parameters: species or system mouse; details: in vivo, data not shown
Description: To expand on the finding above, the in vivo effects of a RARα agonist on T cell differentiation was evaluated in a mouse model. Mice were treated with 100 μg of compound IRX5183 or an equivalent volume of DMSO (vehicle control) every other day for 10 days. Lymphocytes from the blood and spleen were then isolated and FoxP3 expression in CD4^+ T cells was assessed.

[4] = system: naive CD4+ CD25− FoxP3− cells; experiment: in vitro Treg cell differentiation (FoxP3-GFP, flow cytometry); format: cell-based, mouse; details: data not shown
Description: as §3

[5] = system: FLT3/ITD acute myeloid leukemia (AML) cells; details: cited from earlier work
Kasumi-1 cells = experiment: CFU experiments, off and on stroma; format: cell-based; details: 10^−6 M ATRA, IRX5183, or 10^−7 M AM80
Source text: (§4) Data across three independent experiments.

OCI-AML3 cells = experiment: CFU experiments, off and on stroma; format: cell-based; details: 10^−6 M ATRA, IRX5183, or 10^−7 M AM80
Source text: as §4

NB4 cells = experiment: CFU experiments, off and on stroma; format: cell-based; details: 10^−7 M ATRA, IRX5183, or 10^−8 M AM80
Source text: as §4

BM stromal cells = experiment: stromal Cyp26a1 upregulation by MM cells in coculture; format: cell-based, mouse; details: coculture with MM cells
Description: as §2
To confirm the role of paracrine Hedgehog on this interaction, smoothened (Smo), a membrane receptor that transduces SHH signaling, was knocked out at the genomic level in the mesenchymal compartment. For this, BM mesenchymal cells derived from Smo^fl/fl mice were transduced with a retroviral vector encoding Cre recombinase (Smo-KO stroma). Mouse Smo^fl/fl stromal cells transduced with an empty retroviral vector were used as a control (WT stroma). The transduced BM stromal cells were cocultured with MM cells for 24 hr.

[6] = system: relapse/refractory patients; details: in combination with BTZ; cited from earlier work

CCc1ccc(C2=CC(C)(C)Sc3ccc(C#Cc4ccc(C(=O)O)cc4)cc32)cc1 [AGN194310]
surface CD138 expression (MM cells): markedly decreased | mRNA expression of B cell and PC markers (BCL6, BLIMP1, XBP1s, CHOP) [1]: mimicked the changes induced by BM stromal cells | effect on BTZ sensitivity [2]: decreasing BTZ sensitivity

CCOc1c(Br)cc(C(=O)Nc2ccc(C(=O)O)cc2)cc1C(=O)c1ccc(C)cc1 [AGN196996]
Th17 cell numbers [3]: increases Th17 cell numbers | Th17 cell numbers (CD4+ T cells): increases Th17 cell numbers | Treg cell numbers (CD4+ T cells): decreases Treg cell numbers | Treg cell numbers [4]: decreases Treg cell numbers

CC1(C)CCC(C)(C)c2cc(NC(=O)c3ccc(C(=O)O)cc3)ccc21 [AM80, 4-[(5,6,7,8-tetrahydro-5,5,8,8-tetramethyl-2-naphthalenyl)carbamoyl]benzoic acid]
differentiation and sensitivity to FLT3 inhibitors [5]: differentiates FMS-like tyrosine kinase 3/internal tandem duplication (FLT3/ITD) acute myeloid leukemia (AML) cells and increase their sensitivity to FLT3 inhibitors | clonogenic growth (CFU), differentiation and elimination of AML (Kasumi-1 cells): decrease in clonogenic growth compared to control | clonogenic growth (CFU), differentiation and elimination of AML (OCI-AML3 cells): decrease in clonogenic growth compared to control | clonogenic growth (CFU), differentiation and elimination of AML (NB4 cells): decrease in clonogenic growth compared to control

CC1=C2C[C@H]3[C@@H](CC=C4C[C@@H](O)CC[C@@]43C)[C@@H]2CC[C@]12O[C@@H]1C[C@H](C)CN[C@H]1[C@H]2C [cyclopamine]
stromal Cyp26a1 upregulation by MM cells (BM stromal cells): partially overcame stromal Cyp26a1 upregulation by MM cells

c1cc(CN2CCCNCCNCCCNCC2)ccc1CN1CCCNCCNCCCNCC1 [plerixafor]
response rates [6]: improved response rates
